According to article PMC8268987, “In Search of Effective Anticancer Agents—Novel Sugar Esters Based on Polyhydroxyalkanoate Monomers” (International Journal of Molecular Sciences, 2021):
Read-outs that look alike come from different tables or passages of the source.

Tests used:
[1] = test system: normal (control) and cancer cell lines; assay: MTT cytotoxicity assay, summary statements over the tested cell lines; format: cell-based, human; details: data not shown
HTB140 cells [2] = assay: Nuclei roundness by image analysis, HTB140; format: cell-based, human; details: 0.0625 mg mL^–1; for nuclei circularity index: HTB140, after the first 24 h
Method: (§1) Cellular studies 12-well plates were used, cell density 3 × 10^5 per well. After 24 h and 48 h of incubation with tested compounds (0.0625 mg mL^–1), the samples were fixed according to standard protocol. Tubulin (green; AlexaFluor-488 mouse anti-β-tubulin IgG; BD Biosciences, San Jose, CA, USA, Pharminogen; cat. 558605), vimentin (infra-red; I: rabbit-anti-vimentin IgG; GeneTex, Irvine, CA, USA; GTX100619; II: chicken-anti-rabbit-AlexaFluor647 IgG; ThermoFisher, Waltham, MA, USA) and counterstained nuclei (blue; Hoechst 33258; Sigma-Aldrich, Darmstadt, Germany) and F-actin (red; AlexaFluor546-phalloidin; ThermoFisher, Waltham, MA, USA). Next, the samples were washed 5 times with deionized water and prepared for imaging with Fluorescent Mounting Medium (Dako Omnis, Agilent, Santa Clara, CA, USA). Microscopic measurements and observations were carried out with the use of fluorescent techniques performed on Zeiss Axio Observer Z.1 microscope with LSM 710 module (Carl Zeiss Microscopy GmbH Carl-Zeiss-Promenade 10, 07745 Jena, Germany). Image acquisition, processing, deconvolution and analysis were performed using Zeiss ZEN Black software ver. 8.1.0.484 and FluoRender 2.21.0. An oil immersion 40×/NA:1.4 lens was used for observations. Parameters used for acquisition of cell morphology were: nucleus—blue channel (405 nm); microtubular network—green channel (488 nm); Actin—red channel (546 nm); vimentin—far red channel (647 nm).

[3] = test system: HaCAT human skin keratynocytes
Method: (§3) The following cell lines were used: human prostate cancer cells from metastases to the brain DU145 (ATCC® HTB-81™, Manassas, Virginia); healthy human prostate epithelial cell line as a control (PNT2; Sigma-Aldrich, Darmstadt, Germany); human melanoma Hs 294T (ATCC® HTB-140™, Manassas, Virginia); human epidermal keratinocytes (HaCaT) HEK001 (ATCC® CRL-2404™, Manassas, Virginia); and normal human skin fibroblasts BJ (ATCC® CRL2522™) as controls. The cells were cultured in 37 °C with humidified atmosphere enriched with 5% CO2 in appropriate cell culture media: DMEM F12Ham (Sigma-Aldrich, Darmstadt, Germany) + 5% FBS (Thermo Fisher Scientific; Gibco; Waltham, MA, USA); RPMI-1640 (Sigma-Aldrich, Darmstadt, Germany) + 10% FBS (Thermo Fisher Scientific; Gibco; Waltham, MA, USA); DMEM high glucose (Sigma-Aldrich) + 10% FBS (Thermo Fisher Scientific; Gibco; Waltham, MA, USA); DMEM low glucose (Sigma-Aldrich, Darmstadt, Germany) + 10% FBS (Thermo Fisher Scientific; Gibco; Waltham, MA, USA). All media contained a penicillin/streptomycin (Sigma-Aldrich, Darmstadt, Germany) cocktail.
(§4) For the determination of the cytotoxic effect of tested compounds, normal (control) and cancer cell lines cells were tested at a concentration of 2.5 × 10^4 cells cm^–^2 in appropriate culture medium into 96 well microplates (VWR, Radnor, PA, USA). Cells were preincubated with four different concentrations of tested compounds: 0.5, 0.25, 0.125 and 0.0625 mg mL^–1 for 24 h, 72 h and 120 h in cell incubator. After the incubation, MTT labelling reagent (final concentration 0.5 mg mL^–1) and solubilizing solution were added according to the protocol. The samples absorbance was measured using a microplate reader (Multiscan FC; Thermo Fisher Scientific, Waltham, MA, USA) by 570 nm wavelength, 620 nm for reference.

[4] = test system: HSF human skin fibroblasts
Method: as §3, §4

[5] = test system: DU145 prostate cancer cells; assay: MTT cytotoxicity assay, DU145
Method: as §3, §4

[6] = test system: HTB140 human skin melanoma cells; assay: MTT cytotoxicity assay, HTB140
Method: as §3, §4

[7] = test system: HSF human skin fibroblasts; assay: MTT cytotoxicity assay, HSF (control); details: 72 h
Method: as §3, §4

[8] = test system: PNT2 prostate epithelium cells; assay: MTT cytotoxicity assay, PNT2 (control)
Method: as §3, §4

[9] = test system: HaCAT human skin keratynocytes; assay: MTT cytotoxicity assay, HaCAT (control); details: 72 h
Method: as §3, §4

[10] = test system: Jurkat (Human T-cell leukemia); design: method as in doi:10.1002/app.47192, PMID 29904629; details: cited from earlier work
DU145 cells [11] = assay: Nuclei roundness by image analysis, DU145; format: cell-based, human; details: DU145, after 48 h, 0.0625 mg mL^–1
Method: as §1, with “Parameters used for acquisition of cell morphology were: nucleus—blue channel (405 nm); microtubular network—green channel (488 nm); Actin—red channel (546 nm); vimentin—far red channel (647 nm).” left out

DU145 cells [12] = assay: Transmigration assay (Boyden's chamber), DU145; format: cell-based, human; details: DU145, 96 h, 0.0625 mg mL^–1, transmigration/proliferation ratio relative to sugar control
Method: (§2) Transmigration assay was performed using 24-well glass-bottom plate (Eppendorf) containing microporous membranes in Boyden’s chamber (Corning; pore diameter: 8 μm; membrane diameter: 6.5 mm). Native DU145 and HTB140 cells were seeded at density of 3 × 10^5 cells per membrane with tested compounds (0.0625 mg mL^–1) and left for 48 and 96 h for transmigration. The transmigrating cells were fixed with 3.7% formaldehyde and counted. The result is presented as a reference to the rate of cell proliferation in the corresponding compound.

HTB140 cells [13] = assay: Transmigration assay (Boyden's chamber), HTB140; format: cell-based, human; details: HTB140, 96 h, 0.0625 mg mL^–1, relative to sugar control
Method: as §2

Row | Compound | cytotoxicity in the MTT test (in words) [1] | nuclei circularity index (HTB140 cells [2]) | IC50 [3] [µM] | IC50 ([5]; DU145, 24 h) [µM] | IC50 ([5]; DU145, 72 h) [µM] | IC50 ([5]; DU145, 120 h) [µM] | IC50 ([6]; HTB140, 24 h) [µM] | IC50 ([6]; HTB140, 72 h) [µM] | IC50 ([6]; HTB140, 120 h) [µM] | IC50 [7] [µM] | IC50 ([8]; PNT2, 24 h) [µM] | IC50 ([8]; PNT2, 72 h) [µM] | IC50 ([8]; PNT2, 120 h) [µM] | IC50 [9] [µM] | other results
1 | O=C[C@H](O)[C@@H](O)[C@@H](O)[C@H](O)CO [gal, β-d-galactopyranose, reference compound] | low cytotoxicity | smallest round nuclei | – | – | – | – | – | – | – | – | – | – | – | – | –
2 | galactose nonanoic ester [C9-gal] | – | – | 1560 | 1560 | 780 | 1560 | 1660 | 1560 | 1560 | 1560 | 2390 | 1230 | 2360 | 1560 | IC50 [4]: 1560 µM
3 | mixture of (3R)-hydroxynonanoate glucose esters and (3R)-hydroxyheptanoate glucose esters [mPHN-glu] | – | – | 1430 | – | – | – | – | – | – | – | – | – | – | – | –
4 | OC[C@H]1OC(O)[C@H](O)[C@@H](O)[C@@H]1O (stereo partly drawn) [glu, α-D-glucopiranose, reference compound] | low cytotoxicity | smallest round nuclei | – | – | – | – | – | – | – | – | – | – | – | – | –
5 | octanoic acid glucose ester | – | – | – | – | – | – | – | – | – | – | – | – | – | – | IC50 [10]: 120 µM
6 | lactose nonanoic ester [C9-lac] | – | highest circularity index | – | 920 | 840 | 460 | 620 | 920 | 810 | 920 | 1710 | 920 | 1740 | 920 | change of nuclei roundness (DU145 cells [11]): decrease in nucleus roundness index; change of nuclei shape (decrease in roundness index) (HTB140 cells [2]; HTB140, after the next 24 h (48 h)): biggest change; reduction of transmigration (DU145 cells [12]): 25%; decrease of transmigration (HTB140 cells [13]): 16%; IC50 ([5]; read-out: Cytotoxicity of SFAE determined by MTT assay (IC50), Supplementary Table 2, DU145, 72 h, standard deviation on line d below): 837 µM; IC50 ([5]; read-out: Cytotoxicity of SFAE determined by MTT assay (IC50), Supplementary Table 2, DU145, 120 h, standard deviation on line d below): 460 µM; IC50 ([6]; read-out: Cytotoxicity of SFAE determined by MTT assay (IC50), Supplementary Table 2, HTB 140, 24 h, standard deviation on line d below): 622 µM; IC50 ([6]; read-out: Cytotoxicity of SFAE determined by MTT assay (IC50), Supplementary Table 2, HTB 140, 120 h, standard deviation on line d below): 805 µM; IC50 ([8]; read-out: Cytotoxicity of SFAE determined by MTT assay (IC50), Supplementary Table 2, PNT2, 24 h, standard deviation on line d below): 1710 µM; IC50 ([8]; read-out: Cytotoxicity of SFAE determined by MTT assay (IC50), Supplementary Table 2, PNT2, 120 h, standard deviation on line d below): 1740 µM
